Results taken from PMC11282151, “Development of New CD38 Targeted Peptides for Cancer Imaging” (Molecular imaging and biology, 2024).

How the values were obtained:
[1] = tested on: hCD38; assay: Phage display biopanning, PHASTpep selectivity score; type: binding, human; settings: fold change of peptide frequency hCD38 versus average of hCD4, hCD8, GST-His; two rounds of biopanning, NGS
Excerpt: Using phage display and purified human CD38 protein (hCD38), the first generation high- and low-selectivity CD38-targeted peptides were identified for the development of CD38-targeted imaging agents. Briefly, two rounds of phage display screening using the PHASTpep platform identified selective peptides for human CD38. CD38 (R&D, Catalog 2404-AC-010, Minneapolis, MN, U.S.A.) or negative control proteins, human CD4 (hCD4), human CD8 (hCD8), and GST-6His were adsorbed on Maxisorp plates (Nalgene, Nunc #442,404) according to NEB phage display protocols (NEB, Ipswich, MA). A 10 μL aliquot of PhD7 library (7 amino acid linear library) (2 × 10^11 phage) (NEB, #E8211S) diluted in blocking buffer (DPBS/1% bovine serum albumin (BSA)) was added to each well. After 1 h of incubation at room temperature, wells were washed five times with blocking buffer and the remaining bound phage eluted into 100 μL of glycine buffer (0.2 M glycine, 0.5 M NaCl, pH 2.2) for 9 min before immediately neutralizing with 17 μL of 1 M Tris–HCl (pH 9.2).
For analysis, sequencing of the selected phage clones was performed as described in Brinton et al.. Samples sent to the UVA Biomolecular Research Core Facility were deep sequenced on an Illumina MiSeq Sequencer. FASTQ files were analyzed using PHASTpep. PHASTpep analyzed files were aligned for amino acid sequence homology using the Smith—Waterman algorithm.
To identify peptides selective for CD38, we biopanned a random, 7 amino acid peptide phage library on recombinant hCD38 as well as hCD4, hCD8, and GST-His. After two rounds of biopanning on each protein, phage were harvested, amplified, and processed for next generation sequencing (NGS). FASTQ files were uploaded into PHASTpep, translated into peptides, and tables of frequency produced. All sequences were normalized to the naïve library (preselection) sequence frequencies and finally the fold change for each peptide frequency between hCD38 and the average of the same peptide frequency from the hCD4, hCD8, and GST-His screens was calculated. The Smith-Waterman homology algorithm was employed to identify clusters of similar peptides (Table S1). From the analysis, two clusters emerged with more than 5 peptides in the homology family and also had high selectivity (PHASTpep Score, Table S1).

[2] = target: T1, CD38 on MM.1S-CBR-GFP-WT cells (Homo sapiens, UniProt P28907); assay: In vitro blocking study of ^64Cu-NODAGA-PEG4-SL022-GGS cell binding; type: cell-based; settings: for blocking of ^64Cu-NODAGA-PEG4-SL022-GGS binding: 75 μM blocker, MM.1S-CBR-GFP-WT cells
T1 construct: endogenous in cells; host or cells: MM.1S-CBR-GFP-WT human myeloma cells
Procedure: To evaluate the specificity of the CD38 binding peptide, MM.1S-CBR-GFP-WT cells were suspended in binding buffer (Hank’s Balanced Salt Solution with 1 mM Ca^2+ and 1 mM Mg^2+ (HBSS + / +, Gibco, ThermoFisher, Waltham, MA) supplemented with 0.1% BSA) at 4 × 10^5 cells per 250 μL, representing the reaction volume.
In order to determine whether the conjugates were able to identify CD38 protein expressed in its native context, we performed cell binding assays with MM.1S-CBR-GFP-WT cells.

[3] = target: T2, Recombinant human CD38 protein (Homo sapiens, UniProt P28907); assay: Microscale thermophoresis (MST) binding affinity; set-up: purchased R&D 2404-AC-010; settings: for Response Amplitude: Table S2
Procedure: Microscale thermophoresis (MST) assays determined the binding affinity of synthesized peptides to purified CD38 protein and was performed using the Monolith NT.115 (Nanotemper Technologies, Munich, Germany). […] Recombinant human CD38 protein (R&D, Catalog 2404-AC-010, Minneapolis, MN) was labeled with NT647 (Protein labeling kit red-maleimide, Nanotemper Technologies, Germany) and subsequently diluted to 5 nM in MST-2 buffer (50 mM Tris–HCl, pH 7.4, 150 mM NaCl, 10 mM MgCl2, 2% DMSO, and 0.1% Tween-20). Fluorescence was assessed in MST-2 buffer. Samples were loaded into NT.115 standard capillaries, and analysis was performed at 37 °C, 10% LED power, and 40% MST power. The Kd values were calculated from fragment concentration-dependent changes in normalized fluorescence (Fraction Bound) of different CD38 peptides based on the law of mass action using the MO Affinity Analysis v2.3 software.
Microscale Thermophoresis (MST) measures molecular interactions based on temperature gradient-dependent mobility of fluorescent biomolecules.
Fig. 1 Binding studies evaluating CD38-peptides using purified CD38 protein. Microscale thermophoresis (MST) analysis of binding affinities between purified CD38 protein and various CD38 peptide sequences.

[4] = target: T2, Recombinant human CD38 protein; assay: MST; Monolith NT.115; NT647-labeled recombinant human CD38 at 5 nM in MST-2 buffer (50 mM Tris-HCl pH 7.4, 150 mM NaCl, 10 mM MgCl2, 2% DMSO, 0.1% Tween-20); peptides titrated (0.0305 nM to 1000 nM or 0.0305 uM to 1000 uM); 37 °C, 10% LED power, 40% MST power

Row | Molecule | Score (PHASTpep Score) [1] | also measured
1 | QGTDWTM | 1.7 | –
2 | NODAGA-PEG4-Thr-His-Tyr-Pro-Ile-Val-Ile-Gly-Gly-Ser-Lys-NH2 [NODAGA-PEG4-SL022-GGS] | – | blocking of ^64Cu-NODAGA-PEG4-SL022-GGS binding ([2]; 300 nM tracer, 4 °C, 60 min): 58%; decrease in cell-bound ^64Cu-NODAGA-PEG4-SL022-GGS ([2]; 250-fold molar excess of unlabeled blocker): about 2 fold
3 | YDWTMHS | 299.7 | –
4 | MPVARDW | 2.1 | –
5 | TPYPIVL | 429.7 | –
6 | VNYHFPV | 1.2 | binding to purified CD38 [3]: negligible binding
7 | DLVHYPE | 1.5 | –
8 | QTSHDWL | 1.7 | –
9 | YKDWSEW | 266.4 | –
10 | daratumumab: CD38-targeted FDA approved antibody [reference compound] | – | blocking of ^64Cu-NODAGA-PEG4-SL022-GGS binding ([2]; 300 nM tracer, 4 °C, 60 min): 73%; cell-bound ^64Cu-NODAGA-PEG4-SL022-GGS in presence of blocker ([2]; 300 nM tracer, 75 μM unlabeled blocker (250-fold molar excess), 4 °C, 60 min, mean ± SD): 3000 ± 600 fmol/mg
11 | Thr-His-Tyr-Pro-Ile-Val-Ile [THYPIVI] | 730.1 | –
12 | AC-Phe-Ser-Arg-Asp-Trp-Thr-Ser-Gly-Gly-Ser-Lys-NH2 [AC-SL028-GGS] | – | Response Amplitude [3]: 4.64
13 | VSYHFPV | 194.4 | –
14 | AC-Thr-His-Tyr-Pro-Ile-Val-Ile-Gly-Gly-Ser Lys-NH2 [AC-SL022-GGS] | – | Response Amplitude [3]: 4.91
15 | FSRDWTS | 671.1 | –
16 | H-KGGSFSRDWTS-NH2 [GGS-SL028 (H-Lys-Gly-Gly-Ser-Phe-Ser-Arg-Asp-Trp-Thr-Ser-NH2)] | – | Kd [4]: 82.6 nM
17 | FSRDWTSGGSK (AC (acetyl) on the N-terminus; C-terminal amide) [AC-SL028-GGS (AC-Phe-Ser-Arg-Asp-Trp-Thr-Ser-Gly-Gly-Ser-Lys-NH2)] | – | Kd [4]: 243 nM
